The numbers were not newly measured in patent publication US20130184354A1, “Silicone and Hylauronic Acid (HLA) Delivery Systems for Products by Sustainable Processes for Medical Uses Including Wound Management” (priority 2012, published 2013), which cites them from elsewhere.

For data set [1], the target named is CB2 receptors (Homo sapiens, UniProt P34972).
For data set [2] the following is noted: compared with THC.

Sequence of CB2 receptors (P34972 whole entry): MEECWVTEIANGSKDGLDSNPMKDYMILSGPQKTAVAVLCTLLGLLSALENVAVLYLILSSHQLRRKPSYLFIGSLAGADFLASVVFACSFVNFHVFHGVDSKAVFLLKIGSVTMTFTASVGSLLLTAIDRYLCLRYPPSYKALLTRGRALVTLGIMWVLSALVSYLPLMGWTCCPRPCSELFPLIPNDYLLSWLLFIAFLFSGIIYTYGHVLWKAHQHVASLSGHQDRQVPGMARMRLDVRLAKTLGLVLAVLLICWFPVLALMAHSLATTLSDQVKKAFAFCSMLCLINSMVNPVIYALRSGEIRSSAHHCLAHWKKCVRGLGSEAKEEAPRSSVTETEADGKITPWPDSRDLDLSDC

Consider `C=C(C)[C@@H]1CCC(C)=C[C@H]1c1c(O)cc(CCCCC)cc1O` [Cannabidiol], for which the “affinity for CB2 receptors” value in data set [1] is recorded as “no affinity”.

Consider `CCCCCCC(C)(C)c1cc(O)c2c(c1)OC(C)(C)[C@@H]1CC=C(CO)C[C@@H]21` [HU-210], for which, in data set [2], the “potency relative to THC” value is given as “about 100 times”.
